The assay concerns the target Hepatocyte growth factor receptor (Homo sapiens, UniProt P08581). The experiment in a line: Inhibition Assay: A study on inhibition of protein kinases activity at in vitro biochemical levelMaterial and method: kinases such as c-Met, VEGFR-2, Axl and RET, obtained from Invitrogen; HTRF KinEASE; TK kit (Cisbio Company); 384-well plate (Greiner Company); ATP (Sigma Company), MgCl2 (Sigma Company); PHERAstar FS multifunctional plate reader (BMG Company); conventional centrifuge (StaiteXiangyi Company); incubator (Binder Company). […] Meanwhile, 4 μL 1.33× enzymatic buffer is added as the negative control. 2 μL compound working solution is added into each well, and 2 μL 8% DMSO in water is added as zero compound level control (i.e., positive control). At 25° C. (or 30 C), incubate for 5-10 min; add 2 μL substrate working solution into each well to initiate the enzymatic reaction. Allow to react while shaking at 25° C. (or 30° C.) for 15-60 min.

Chain of Hepatocyte growth factor receptor (P08581 whole entry): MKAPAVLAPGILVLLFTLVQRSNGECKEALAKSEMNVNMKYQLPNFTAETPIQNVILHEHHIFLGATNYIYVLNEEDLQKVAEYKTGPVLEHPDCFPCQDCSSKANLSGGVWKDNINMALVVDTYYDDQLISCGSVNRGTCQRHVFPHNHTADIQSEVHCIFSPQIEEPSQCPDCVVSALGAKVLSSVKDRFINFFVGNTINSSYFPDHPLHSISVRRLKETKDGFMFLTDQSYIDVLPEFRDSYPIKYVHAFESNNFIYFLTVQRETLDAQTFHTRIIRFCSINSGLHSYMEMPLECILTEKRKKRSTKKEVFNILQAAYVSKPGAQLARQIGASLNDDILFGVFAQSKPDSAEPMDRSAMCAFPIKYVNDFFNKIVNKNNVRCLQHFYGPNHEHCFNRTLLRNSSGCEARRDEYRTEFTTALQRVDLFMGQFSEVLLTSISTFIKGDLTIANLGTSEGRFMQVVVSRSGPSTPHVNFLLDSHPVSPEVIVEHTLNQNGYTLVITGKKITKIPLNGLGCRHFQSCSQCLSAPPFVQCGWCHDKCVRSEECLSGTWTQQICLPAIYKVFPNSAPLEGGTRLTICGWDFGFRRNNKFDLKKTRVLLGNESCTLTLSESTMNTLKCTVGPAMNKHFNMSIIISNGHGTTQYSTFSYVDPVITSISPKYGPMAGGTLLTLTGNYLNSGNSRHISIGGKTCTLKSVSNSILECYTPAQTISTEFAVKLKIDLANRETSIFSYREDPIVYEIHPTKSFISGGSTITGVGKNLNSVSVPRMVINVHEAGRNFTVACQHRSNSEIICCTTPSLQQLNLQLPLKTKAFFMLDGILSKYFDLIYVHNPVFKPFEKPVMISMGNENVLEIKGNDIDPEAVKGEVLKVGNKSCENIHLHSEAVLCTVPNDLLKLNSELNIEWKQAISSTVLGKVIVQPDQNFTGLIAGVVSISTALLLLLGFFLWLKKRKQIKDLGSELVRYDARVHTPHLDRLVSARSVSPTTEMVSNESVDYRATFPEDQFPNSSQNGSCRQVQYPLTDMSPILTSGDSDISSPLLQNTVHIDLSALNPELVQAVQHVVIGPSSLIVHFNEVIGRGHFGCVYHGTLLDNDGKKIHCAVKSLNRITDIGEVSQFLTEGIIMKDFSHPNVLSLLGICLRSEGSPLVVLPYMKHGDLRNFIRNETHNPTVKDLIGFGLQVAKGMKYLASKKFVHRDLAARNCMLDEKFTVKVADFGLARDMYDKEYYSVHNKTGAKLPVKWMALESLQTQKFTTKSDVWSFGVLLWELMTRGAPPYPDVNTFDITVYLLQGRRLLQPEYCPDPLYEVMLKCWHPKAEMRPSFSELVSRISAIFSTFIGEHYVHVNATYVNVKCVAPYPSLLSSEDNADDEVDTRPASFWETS

The molecule `COc1cc2nccc(Oc3ccc(Nc4nccc5[nH]cc(-c6ccc(F)cc6)c(=O)c45)cc3F)c2cc1OC` came in with an IC50 of 143 nM.

The values above are taken from ChEMBL document CHEMBL5726941, “Naphthyridine compounds, medical combinations and use thereof” (2018).
